Results: article PMC5218480 (PLoS ONE, 2017)

Tested on: MV-4-11 cells
Assay: Gene expression microarray analysis (Affymetrix PrimeView) and GSEA
Format: cell-based, human
Design: RFU PODN (11730768_x_at) / Fold change /veh PODN (11730768_x_at) / RFU LINC00158 (11744669_a_at) / Fold change /veh LINC00158 (11744669_a_at) / RFU DUSP10 (11751237_a_at) / Fold change /veh DUSP10 (11751237_a_at) / RFU ID3 (11757404_x_at) / Fold change /veh ID3 (11757404_x_at) / RFU PLEKHG5 (11737974_s_at) / Fold change /veh PLEKHG5 (11737974_s_at) / RFU LRRC4B (11730491_at) / Fold change /veh LRRC4B (11730491_at) / RFU GIMAP4 (11747438_a_at) / Fold change /veh GIMAP4 (11747438_a_at) / RFU KRT8 (11758183_x_at) / Fold change /veh KRT8 (11758183_x_at) / RFU CNN1 (11734310_a_at) / Fold change /veh CNN1 (11734310_a_at) / RFU VPS37D (11726825_at) / Fold change /veh VPS37D (11726825_at) / RFU C10orf10 (11716522_x_at) / Fold change /veh C10orf10 (11716522_x_at) / RFU KIR2DL2 /// KIR2DL4 /// KIR2DL5A /// KIR2DL5B /// KIR2DS1 /// KIR2DS2 /// KIR2DS3 /// KIR2DS4 /// KIR3DL3 /// KIR3DL3 /// KIR3DS1 (11738374_at) / Fold change /veh KIR2DL2 /// KIR2DL4 /// KIR2DL5A /// KIR2DL5B /// KIR2DS1 /// KIR2DS2 /// KIR2DS3 /// KIR2DS4 /// KIR3DL3 /// KIR3DL3 /// KIR3DS1 (11738374_at) / RFU C1QL1 (11718748_at) / Fold change /veh C1QL1 (11718748_at) / RFU TMPRSS4 (11747572_a_at) / Fold change /veh TMPRSS4 (11747572_a_at) / RFU HAMP (11756126_x_at) / Fold change /veh HAMP (11756126_x_at) / RFU RNFT2 (11725882_a_at) / Fold change /veh RNFT2 (11725882_a_at) / RFU NR4A2 (11747474_a_at) / Fold change /veh NR4A2 (11747474_a_at) / RFU ABCC12 (11746883_a_at) / Fold change /veh ABCC12 (11746883_a_at) / RFU TMEM136 (11760407_x_at) / Fold change /veh TMEM136 (11760407_x_at) / RFU CLDN22 /// WWC2 (11732394_at) / Fold change /veh CLDN22 /// WWC2 (11732394_at) / RFU HLA-DPB1 (11760878_x_at) / Fold change /veh HLA-DPB1 (11760878_x_at) / RFU SPINT1 (11716480_a_at) / Fold change /veh SPINT1 (11716480_a_at) / RFU GAP43 (11754022_s_at) / Fold change /veh GAP43 (11754022_s_at) / RFU A4GNT (11735810_at) / Fold change /veh A4GNT (11735810_at) / RFU PRB3 (11715151_x_at) / Fold change /veh PRB3 (11715151_x_at) / RFU TUBB4B (11761932_at) / Fold change /veh TUBB4B (11761932_at) / RFU CAPN14 (11732068_a_at) / Fold change /veh CAPN14 (11732068_a_at) / RFU TMCC2 (11721928_a_at) / Fold change /veh TMCC2 (11721928_a_at) / RFU IRGQ (11745062_a_at) / Fold change /veh IRGQ (11745062_a_at) / RFU FAM174B (11720279_a_at) / Fold change /veh FAM174B (11720279_a_at) / RFU TMPRSS4 (11748680_a_at) / Fold change /veh TMPRSS4 (11748680_a_at) / RFU FAM212B (11763350_a_at) / Fold change /veh FAM212B (11763350_a_at) / RFU PLEKHG5 (11743358_a_at) / Fold change /veh PLEKHG5 (11743358_a_at) / RFU ZSCAN30 (11745921_a_at) / Fold change /veh ZSCAN30 (11745921_a_at) / RFU CMKLR1 (11741424_a_at) / Fold change /veh CMKLR1 (11741424_a_at) / RFU LOC101060620 /// MAPK8IP1 (11723275_at) / Fold change /veh LOC101060620 /// MAPK8IP1 (11723275_at) / RFU SPTSSB (11747773_x_at) / Fold change /veh SPTSSB (11747773_x_at) / RFU PRSS12 (11739890_at) / Fold change /veh PRSS12 (11739890_at) / RFU BIN1 (11741810_x_at) / Fold change /veh BIN1 (11741810_x_at) / RFU WNT11 (11732464_a_at) / Fold change /veh WNT11 (11732464_a_at) / RFU C10orf10 (11716521_a_at) / Fold change /veh C10orf10 (11716521_a_at) / RFU C5orf56 (11738089_at) / Fold change /veh C5orf56 (11738089_at) / RFU CYB561 (11721691_x_at) / Fold change /veh CYB561 (11721691_x_at) / RFU ANKRD19P (11752326_a_at) / Fold change /veh ANKRD19P (11752326_a_at) / RFU OR2T12 /// OR2T33 /// OR2T8 (11738714_s_at) / Fold change /veh OR2T12 /// OR2T33 /// OR2T8 (11738714_s_at) / RFU VCAN (11748164_a_at) / Fold change /veh VCAN (11748164_a_at) / RFU JSRP1 (11732532_at) / Fold change /veh JSRP1 (11732532_at) / RFU KRTAP10-11 (11738290_x_at) / Fold change /veh KRTAP10-11 (11738290_x_at) / RFU MYO3A (11730013_a_at) / Fold change /veh MYO3A (11730013_a_at) / RFU EBF3 (11725865_a_at) / Fold change /veh EBF3 (11725865_a_at) / RFU CAMK2N1 (11719241_x_at) / Fold change /veh CAMK2N1 (11719241_x_at) / RFU C5orf56 (11738088_a_at) / Fold change /veh C5orf56 (11738088_a_at) / RFU OLFML3 (11715873_a_at) / Fold change /veh OLFML3 (11715873_a_at) / RFU LOC100653217 /// NTM (11731650_a_at) / Fold change /veh LOC100653217 /// NTM (11731650_a_at) / RFU MAPK11 (11762145_a_at) / Fold change /veh MAPK11 (11762145_a_at) / RFU FIZ1 (11724087_x_at) / Fold change /veh FIZ1 (11724087_x_at) / RFU OASL (11726364_x_at) / Fold change /veh OASL (11726364_x_at) / RFU SOX15 (11748057_x_at) / Fold change /veh SOX15 (11748057_x_at) / RFU CD79A (11719716_a_at) / Fold change /veh CD79A (11719716_a_at) / RFU HIST1H1D (11736915_at) / Fold change /veh HIST1H1D (11736915_at) / RFU CASKIN2 (11723855_a_at) / Fold change /veh CASKIN2 (11723855_a_at) / RFU LOC730098 (11760151_x_at) / Fold change /veh LOC730098 (11760151_x_at) / RFU OR4N2 (11742367_at) / Fold change /veh OR4N2 (11742367_at) / RFU PRRT2 (11749266_a_at) / Fold change /veh PRRT2 (11749266_a_at) / RFU SNX32 (11753110_a_at) / Fold change /veh SNX32 (11753110_a_at) / RFU CDHR5 (11726645_a_at) / Fold change /veh CDHR5 (11726645_a_at) / RFU RCAN1 (11760418_a_at) / Fold change /veh RCAN1 (11760418_a_at) / RFU FAM167A (11723789_a_at) / Fold change /veh FAM167A (11723789_a_at) / RFU FAM26E (11764081_at) / Fold change /veh FAM26E (11764081_at) / RFU ISYNA1 (11749810_s_at) / Fold change /veh ISYNA1 (11749810_s_at) / RFU ACY1 (11761880_at) / Fold change /veh ACY1 (11761880_at) / RFU 11764098_at / Fold change /veh 11764098_at / RFU SAMD14 (11745864_x_at) / Fold change /veh SAMD14 (11745864_x_at) / RFU NPB (11741838_a_at) / Fold change /veh NPB (11741838_a_at) / RFU TMPRSS6 (11731388_a_at) / Fold change /veh TMPRSS6 (11731388_a_at) / RFU KRTAP10-2 (11738614_at) / Fold change /veh KRTAP10-2 (11738614_at) / RFU ARHGAP8 /// PRR5-ARHGAP8 (11727945_x_at) / Fold change /veh ARHGAP8 /// PRR5-ARHGAP8 (11727945_x_at) / RFU KRTAP5-7 /// NADSYN1 (11734609_at) / Fold change /veh KRTAP5-7 /// NADSYN1 (11734609_at) / RFU RASL12 (11751679_a_at) / Fold change /veh RASL12 (11751679_a_at) / RFU CDKN2B (11736163_a_at) / Fold change /veh CDKN2B (11736163_a_at) / RFU PRF1 (11729649_at) / Fold change /veh PRF1 (11729649_at) / RFU, ZNF638 /// ZNF638-IT1 / Fold change vs veh, ZNF638 /// ZNF638-IT1 / RFU, PANK3 / Fold change vs veh, PANK3 / RFU, SH3YL1 / Fold change vs veh, SH3YL1 / RFU, ZEB2 / Fold change vs veh, ZEB2 / RFU, NRIP1 / Fold change vs veh, NRIP1 / RFU, PTTG1IP / Fold change vs veh, PTTG1IP / RFU, CAPN2 / Fold change vs veh, CAPN2 / RFU, MED14 / Fold change vs veh, MED14 / RFU, SNORA58 / Fold change vs veh, SNORA58 / RFU, C1orf63 / Fold change vs veh, C1orf63 / RFU, LRRFIP1 / Fold change vs veh, LRRFIP1 / RFU, NDUFAF7 / Fold change vs veh, NDUFAF7 / RFU, SLC12A2 / Fold change vs veh, SLC12A2 / RFU, IBTK / Fold change vs veh, IBTK / RFU, ESF1 / Fold change vs veh, ESF1 / Fold change vs veh, TMEM50B / RFU, TAOK1 / Fold change vs veh, TAOK1 / RFU, ACBD3 / Fold change vs veh, ACBD3 / RFU, TMA16 / Fold change vs veh, TMA16 / RFU, RWDD3 / Fold change vs veh, RWDD3 / RFU, BCAT1 / Fold change vs veh, BCAT1 / RFU, EDEM3 / Fold change vs veh, EDEM3 / RFU, TMEM33 / Fold change vs veh, TMEM33 / RFU, WDR75 / Fold change vs veh, WDR75 / RFU, AHCTF1 / Fold change vs veh, AHCTF1 / RFU, TFRC / Fold change vs veh, TFRC / RFU, ZDHHC17 / Fold change vs veh, ZDHHC17 / RFU, NOM1 / Fold change vs veh, NOM1 / RFU, ARL8B / Fold change vs veh, ARL8B / RFU, ZBTB11 / Fold change vs veh, ZBTB11 / RFU, TAMM41 / Fold change vs veh, TAMM41 / RFU, KIAA1704 /// LOC100996395 / Fold change vs veh, KIAA1704 /// LOC100996395 / RFU, ING1 / Fold change vs veh, ING1 / RFU, TRMT61B / Fold change vs veh, TRMT61B / RFU, FUBP3 / Fold change vs veh, FUBP3 / RFU, TP53 / Fold change vs veh, TP53 / RFU, TNKS2 / Fold change vs veh, TNKS2 / RFU, ZFP14 / Fold change vs veh, ZFP14 / RFU, ACTR2 / Fold change vs veh, ACTR2 / RFU, PPP3R1 / Fold change vs veh, PPP3R1 / RFU, PIK3R1 / Fold change vs veh, PIK3R1 / RFU, HNRNPA1 / Fold change vs veh, HNRNPA1 / RFU, RNF170 / Fold change vs veh, RNF170 / RFU, ZNF28 / Fold change vs veh, ZNF28 / RFU, RNGTT / Fold change vs veh, RNGTT / RFU, OGT / Fold change vs veh, OGT / RFU, BRD1 / Fold change vs veh, BRD1 / RFU, MARS / Fold change vs veh, MARS / RFU, ZNF655 / Fold change vs veh, ZNF655 / RFU, FAHD1 / Fold change vs veh, FAHD1 / RFU, BDP1 / Fold change vs veh, BDP1 / RFU, LRRCC1 / Fold change vs veh, LRRCC1 / RFU, ARID1A / Fold change vs veh, ARID1A / RFU, ZNF146 / Fold change vs veh, ZNF146 / RFU, ZNF330 / Fold change vs veh, ZNF330 / RFU, GPN3 / Fold change vs veh, GPN3 / RFU, C9orf123 / Fold change vs veh, C9orf123 / RFU, N4BP2L2 / Fold change vs veh, N4BP2L2 / RFU, ARFIP1 / Fold change vs veh, ARFIP1 / RFU, FAM179B / Fold change vs veh, FAM179B / RFU, BCL10 / Fold change vs veh, BCL10 / RFU, UHRF1BP1L / Fold change vs veh, UHRF1BP1L / RFU, BET1 / Fold change vs veh, BET1 / RFU, CNOT2 / Fold change vs veh, CNOT2 / RFU, ZNF268 / Fold change vs veh, ZNF268 / Fold change vs veh, ZNF507 / RFU, DGCR2 / Fold change vs veh, DGCR2 / RFU, WDSUB1 / Fold change vs veh, WDSUB1 / Fold change vs veh, HSP90B1 /// MIR3652 / RFU, ADSS / Fold change vs veh, ADSS / RFU, GK / Fold change vs veh, GK / RFU, ZNF148 / Fold change vs veh, ZNF148 / RFU, TAF9 / Fold change vs veh, TAF9 / RFU, SLC1A5 / Fold change vs veh, SLC1A5 / RFU, SLMO2 / Fold change vs veh, SLMO2 / RFU, ABCC4 / Fold change vs veh, ABCC4 / RFU, LOC101060439 /// RAP1B / Fold change vs veh, LOC101060439 /// RAP1B / RFU, RFX7 / Fold change vs veh, RFX7 / RFU, GTPBP10 / Fold change vs veh, GTPBP10 / RFU, CNEP1R1 / Fold change vs veh, CNEP1R1 / RFU, BIVM-ERCC5 /// ERCC5 / Fold change vs veh, BIVM-ERCC5 /// ERCC5 / RFU, ILF3 / Fold change vs veh, ILF3 / RFU 11762660_at / Fold change /veh 11762660_at / RFU VCAN (11757783_s_at) / Fold change /veh VCAN (11757783_s_at) / RFU DDX43 (11728927_at) / Fold change /veh DDX43 (11728927_at) / RFU KRT8 (11758188_x_at) / Fold change /veh KRT8 (11758188_x_at) / RFU NKD1 (11759106_at) / Fold change /veh NKD1 (11759106_at) / RFU SRD5A1 (11742802_a_at) / Fold change /veh SRD5A1 (11742802_a_at) / RFU TPSAB1 /// TPSB2 (11721975_s_at) / Fold change /veh TPSAB1 /// TPSB2 (11721975_s_at) / RFU GSTM3 (11746129_a_at) / Fold change /veh GSTM3 (11746129_a_at) / RFU IL23R (11737362_x_at) / Fold change /veh IL23R (11737362_x_at) / RFU TMEM51 (11727254_a_at) / Fold change /veh TMEM51 (11727254_a_at) / RFU PIWIL2 (11732686_x_at) / Fold change /veh PIWIL2 (11732686_x_at) / RFU ORM1 (11744905_x_at) / Fold change /veh ORM1 (11744905_x_at) / RFU CCDC152 (11743942_at) / Fold change /veh CCDC152 (11743942_at) / RFU ECM1 (11717891_a_at) / Fold change /veh ECM1 (11717891_a_at) / RFU IL23R (11748794_a_at) / Fold change /veh IL23R (11748794_a_at) / RFU TNFAIP8L3 (11732012_x_at) / Fold change /veh TNFAIP8L3 (11732012_x_at) / RFU MBOAT4 (11741988_at) / Fold change /veh MBOAT4 (11741988_at) / RFU 11764193_at / Fold change /veh 11764193_at / RFU TMEM53 (11763286_at) / Fold change /veh TMEM53 (11763286_at) / RFU MAGEB2 (11727129_at) / Fold change /veh MAGEB2 (11727129_at) / RFU TMEM200A (11744735_a_at) / Fold change /veh TMEM200A (11744735_a_at) / RFU CCDC152 (11751479_a_at) / Fold change /veh CCDC152 (11751479_a_at) / RFU FAM211A (11726209_a_at) / Fold change /veh FAM211A (11726209_a_at) / RFU RGS16 (11746705_a_at) / Fold change /veh RGS16 (11746705_a_at) / RFU VCAN (11755009_s_at) / Fold change /veh VCAN (11755009_s_at) / RFU RHOB (11743442_s_at) / Fold change /veh RHOB (11743442_s_at) / RFU RGS16 (11720943_a_at) / Fold change /veh RGS16 (11720943_a_at) / RFU RGS16 (11720944_at) / Fold change /veh RGS16 (11720944_at) / RFU, VPS4B / Fold change vs veh, VPS4B / RFU, CREB1 / Fold change vs veh, CREB1 / RFU, DNAJC13 / Fold change vs veh, DNAJC13 / RFU, GNAQ / Fold change vs veh, GNAQ / RFU, CDK5R1 / Fold change vs veh, CDK5R1 / RFU, ZRANB3 / Fold change vs veh, ZRANB3 / RFU, CUL4A / Fold change vs veh, CUL4A / RFU, CCNY / Fold change vs veh, CCNY / RFU, UFL1 / Fold change vs veh, UFL1 / RFU, COG3 / Fold change vs veh, COG3 / RFU, DIAPH2 / Fold change vs veh, DIAPH2 / RFU, SKA2 / Fold change vs veh, SKA2 / RFU, AFF3 / Fold change vs veh, AFF3 / RFU, LMF1 / Fold change vs veh, LMF1 / RFU, IPO11 / Fold change vs veh, IPO11 / RFU, DFFB / Fold change vs veh, DFFB / RFU, FOXP1 / Fold change vs veh, FOXP1 / RFU, CARD8 / Fold change vs veh, CARD8 / RFU, STRN3 / Fold change vs veh, STRN3 / RFU, ADK / Fold change vs veh, ADK / RFU, RASSF2 / Fold change vs veh, RASSF2 / RFU, WIPF1 / Fold change vs veh, WIPF1 / RFU, LARP1B / Fold change vs veh, LARP1B / RFU, RASA1 / Fold change vs veh, RASA1 / RFU, RB1 / Fold change vs veh, RB1 / RFU, PPFIA1 / Fold change vs veh, PPFIA1 / RFU, MAT2A / Fold change vs veh, MAT2A / RFU, CCT5 / Fold change vs veh, CCT5 / RFU, WDR92 / Fold change vs veh, WDR92 / RFU, CUX1 / Fold change vs veh, CUX1 / RFU, TTC7A / Fold change vs veh, TTC7A / RFU, TMEM135 / Fold change vs veh, TMEM135 / RFU, DEPTOR / Fold change vs veh, DEPTOR / RFU, CPM / Fold change vs veh, CPM / RFU, DNAJB6 / Fold change vs veh, DNAJB6 / RFU, CACNA2D3 / Fold change vs veh, CACNA2D3 / RFU, DTX4 / Fold change vs veh, DTX4 / RFU, TFCP2 / Fold change vs veh, TFCP2 / RFU, GMCL1 /// GMCL1P1 / Fold change vs veh, GMCL1 /// GMCL1P1 / RFU, AEBP2 / Fold change vs veh, AEBP2 / RFU, SNHG1 /// SNORD22 /// SNORD25 /// SNORD26 /// SNORD27 /// SNORD28 /// SNORD29 /// SNORD31 / Fold change vs veh, SNHG1 /// SNORD22 /// SNORD25 /// SNORD26 /// SNORD27 /// SNORD28 /// SNORD29 /// SNORD31 / Fold change (Aza/veh), C12orf56 (ProbeSet 11735607_a_at) / Fold change (ACY-1035/veh), C12orf56 (ProbeSet 11735607_a_at) / Fold change (Aza/veh), FGFR1OP (ProbeSet 11751329_s_at) / Fold change (ACY-1035/veh), FGFR1OP (ProbeSet 11751329_s_at) / Fold change (Aza/veh), VPS36 (ProbeSet 11739960_a_at) / Fold change (ACY-1035/veh), VPS36 (ProbeSet 11739960_a_at) / RFU SYPL1 (11715823_x_at) / Fold change /veh SYPL1 (11715823_x_at) / RFU IGFBP7 (11715501_s_at) / Fold change /veh IGFBP7 (11715501_s_at) / RFU REEP3 (11722064_at) / Fold change /veh REEP3 (11722064_at) / RFU IGLL1 (11728026_x_at) / Fold change /veh IGLL1 (11728026_x_at): dose or concentration left out as unconfirmed
Conditions: ProbeSet 11719493_s_at; LIST B

Nc1ccc(-c2cccs2)cc1NC(=O)c1ccc2c(c1)cc(C1CC1)n2CCN1CCOCC1 [ACY-1035]
RFU, TAF9: 511.51 RFU
